Reference: publication PMC6266305 (Nutrients, 2018)
Values joined by “and” are separate entries in the source; they are usually repeats but may differ in a detail not shown here. Identical values can stand only once. “Also recorded” adds a separate entry of the source. Like-named read-outs stand apart in the source and are kept apart here.

Tests used:
[1] = In vitro digestion model: bioaccessibility of alperujo phenolic compounds added to a test meal (percentage found in the aqueous phase of the digesta); assay type: in vitro ADME; conditions: for recovery: pig
Protocol: The in vitro digestion was carried out as previously described. […] The mixture was dispersed with Ultra-Turrax® (Ika) and artificial saliva (2.5 mL, pH 7) was added to the mixture. The sample was incubated for 10 min at 37 °C in a shaking incubator. The pH of the gastric medium was adjusted to 4.00 ± 0.02 with 1 M HCl. Then, porcine pepsin (2 mL, 40 mg/mL in 0.1 M HCl) was added and the homogenate was incubated at 37 °C in a shaking incubator for 30 min simulating the gastric step. The pH of the mixture was raised to 6.00 ± 0.02 with 0.9 M NaHCO3 and 13 mL of a mixture of porcine bile extract (39.08 mg/mL) and pancreatin (2.08 mg/mL) in 0.1 M trisodium citrate (pH 6) were added. Samples were incubated in a shaking incubator at 37 °C for 30 min to complete the digestion process. The final mixture representing the digesta was centrifuged (2500 g for 1 h at 10 °C) to separate the aqueous fraction. […] All analyses were run in quadruplicate. Aliquots from salivary, gastric, and duodenal steps were frozen at −80 °C until use. […] After centrifugation (3560 g for 10 min at 4 °C), the lower phase was collected. The solid bottom was re-extracted with 0.3 mL of ethanol and vortexed for 10 min. The second ethanol phase recovered was pooled to the previously collected phase, and then dried using a Speed-Vac®. The dried extracts were dissolved in 200 µL of water. Apical media were directly injected. […] All samples were stored at −80 °C before analysis. All samples were analyzed by UHPLC-DAD-MS using an Acquity UPLC® system that was linked to both a diode-array detector and a Bruker Daltonics HCT Ultra Ion Traps mass spectrometer equipped with an Electron Spray Ionization (ESI) source operating in negative ion mode. The separation was performed on an Acquity C18 BEH column (50 × 2.1 mm i.d., 1.7 µm) kept at 35 °C. The solvents were (A) water/formic acid (99.5/0.5) and (B) acetonitrile. […] Along the three steps of the gradient, the flow rate was 0.30, 0.35, and 0.40 mL/min. […] Chromatograms were acquired at 280 nm. The spectroscopic detection was performed in the range 200–800 nm with a resolution of 1.2 nm.

Caco-2 TC7 cells = assay: Uptake and apical-to-basolateral transport by Caco-2 TC7 cell monolayers of diluted aqueous fractions from in vitro digestions; assay type: in vitro ADME, human; conditions: for Recovery in the cytosolic compartment of the cells or in the basolateral media (crossing of Caco-2 monolayers, native form): 6-h incubation; for Decrease of amount in the apical media: 6-h incubation on cell monolayers; for Amount found in the cytosolic compartment of Caco-2 cells, percentage of the initial amount at the apical side: 6 h incubation; for Metabolism in the intestinal cells: Caco-2 cells, inferred from total recovery; for FA at the basolateral side as percentage (CA equivalent) of the initial CA amount in the apical side: 6 h, FA is the CA metabolite
Protocol: (§1) Caco-2 TC7 cells were grown in DMEM supplemented with 16% (v/v) fetal bovine serum, 1% (v/v) non-essential amino-acids, and 1% (v/v) antibiotics (complete medium), as previously described. Cells were then seeded at a density of 15 000 cells/well, grown on transwell membrane (six-well plate, […] polycarbonate membrane; Becton Dickinson) and incubated in humidified atmosphere of 5% CO2 and 95% air at 37 °C during 21 days to obtain confluent and differentiated cell monolayers.
(§2) The cytotoxicity on Caco-2 cells of the aqueous fractions from in vitro digestions was first assessed to determine the suitable dilution required before adding the aqueous fractions to the apical side of cell monolayers. […] To avoid any interference with DMEM or serum components, the aqueous fractions were diluted in HBSS. Caco-2 cells also received HBSS in both chambers 12 h before the experiments. At the beginning of each experiment, cells were rinsed twice with 1 mL of PBS. Then, 1 mL of diluted aqueous fraction was added to the apical side and 2 mL of HBSS were added at the basolateral side. After an incubation period (2, 4, or 6 h) at 37 °C, both apical and basolateral media were harvested. Cells were then rinsed twice with 1mL of PBS and scrapped in 0.5 mL of iced-cold PBS. All analyses were run in quadruplicate and samples were stored at −80 °C until further analysis.
(§3) Gallic acid was chosen as internal standard as it was not present in the extract. Phenolic compounds were extracted from salivary, gastric and duodenal samples as follows: 0.3 mL of ethanol and 0.2 mL of n-hexane were added to 0.2 mL of sample and the mixture was stirred for 10 min using a vortex blender at maximal speed. After centrifugation (3560 g for 10 min at 4 °C), the lower phase was collected. The solid bottom was re-extracted with 0.3 mL of ethanol and vortexed for 10 min. The second ethanol phase recovered was pooled to the previously collected phase, and then dried using a Speed-Vac®. The dried extracts were dissolved in 200 µL of water. Apical media were directly injected. To concentrate them, basolateral media (1900 µL) were dried using a Speed-Vac®, and the dried residues were dissolved into 80 µL of water. All samples were stored at −80 °C before analysis.
(§4) Following the procedure by Gallardo et al. (2016), 50 µL of internal standard were added to harvested cells (in 500 µL PBS). Samples were then sonicated for 10 min at room temperature and centrifuged (10,000 g for 10 min at 4 °C). Supernatants were collected and evaporated to dryness. The dried residues were dissolved in 50 µL of water and stored at −80 °C before analysis.
(§5) All samples were analyzed by UHPLC-DAD-MS using an Acquity UPLC® system that was linked to both a diode-array detector and a Bruker Daltonics HCT Ultra Ion Traps mass spectrometer equipped with an Electron Spray Ionization (ESI) source operating in negative ion mode. The separation was performed on an Acquity C18 BEH column (50 × 2.1 mm i.d., 1.7 µm) kept at 35 °C. The solvents were (A) water/formic acid (99.5/0.5) and (B) acetonitrile. The proportions of solvent B used were: 0–10 min: 1–20%, 10–12 min: 20–30%, 12–14 min: 30–100%. Along the three steps of the gradient, the flow rate was 0.30, 0.35, and 0.40 mL/min. The injection volume was 1 μL for digestion and apical medium samples, and 10 µL for cells and basolateral samples. Chromatograms were acquired at 280 nm. The spectroscopic detection was performed in the range 200–800 nm with a resolution of 1.2 nm. The concentrations of phenolic compounds Tyr, CA, and p-Cm were estimated from calibration curves (peak area vs. concentration) with R² values greater than 0.99 [26].
(§6) Results were expressed as means ± standard deviations. Differences between means were assessed using ANOVA followed by the post-hoc Tukey test for parametric data. P values under 0.05 were considered to be significant. […]

[2] = as above; assay type: in vitro ADME, human; conditions: human; for recovery at 6 h: Caco-2, 6 h; for Basolateral amount as percentage of initial apical amount (Caco-2 transport): whether from alperujo or alperujo-CD, read-out: Bioavailability (basolateral amount compared with initial apical amount)
Protocol: as §1, §2, §3, §4, §5, §6

Caco-2 cells = assay: Overall in vitro bioavailability: basolateral amount in Caco-2 cells relative to the initial amount in the test meal before in vitro digestion; assay type: in vitro ADME, human; conditions: mean ± SD (n = 4)
Protocol: The in vitro digestion was carried out as previously described. […] The mixture was dispersed with Ultra-Turrax® (Ika) and artificial saliva (2.5 mL, pH 7) was added to the mixture. The sample was incubated for 10 min at 37 °C in a shaking incubator. […] Then, porcine pepsin (2 mL, 40 mg/mL in 0.1 M HCl) was added and the homogenate was incubated at 37 °C in a shaking incubator for 30 min simulating the gastric step. […] Samples were incubated in a shaking incubator at 37 °C for 30 min to complete the digestion process. The final mixture representing the digesta was centrifuged (2500 g for 1 h at 10 °C) to separate the aqueous fraction. […] The cytotoxicity on Caco-2 cells of the aqueous fractions from in vitro digestions was first assessed to determine the suitable dilution required before adding the aqueous fractions to the apical side of cell monolayers. […] To avoid any interference with DMEM or serum components, the aqueous fractions were diluted in HBSS. Caco-2 cells also received HBSS in both chambers 12 h before the experiments. At the beginning of each experiment, cells were rinsed twice with 1 mL of PBS. […] Cells were then rinsed twice with 1mL of PBS and scrapped in 0.5 mL of iced-cold PBS. All analyses were run in quadruplicate and samples were stored at −80 °C until further analysis. Results were expressed as means ± standard deviations. Differences between means were assessed using ANOVA followed by the post-hoc Tukey test for parametric data. […] Two parameters were assessed to express the bioavailability: a) the ratio between the mass of phenolic compounds recovered at the basolateral side and the initial mass added to the apical side, b) the ratio between the mass of phenolic compounds recovered at the basolateral side and the initial mass added to the meal.

[3] = design: method as in PMID 27355793; conditions: Tyr from olives; cited from earlier work
[4] = design: method as in PMID 21494673; conditions: cited from earlier work
[5] = pH 6, in vitro digestion with test meal, average of alperujo and alperujo-CD, mean ± SD, read-out: Bioaccessibility (recovery in the final aqueous phase at the duodenal step)
[6] = pH 6, in vitro digestion, relative to the initial quantity, read-out: Recovery in the digesta
[7] = from alperujo-CD, mean ± SD (n = 4), read-out: Bioavailability in Caco-2 cells (recovery on the basolateral side) as percentage of initial apical amount
[8] = from alperujo, mean ± SD (n = 4), read-out: Bioavailability in Caco-2 cells (recovery on the basolateral side) as percentage of initial apical amount
[9] = read-out: Total recovery in the three compartments (apical, basolateral, cells)

Molecule	Recovery in the cytosolic compartment of the cells or in the basolateral media (crossing of Caco-2 monolayers, native form) (Caco-2 TC7 cells)	Decrease of amount in the apical media (Caco-2 TC7 cells; from alperujo)	recovery [1, 5]	recovery [1, 6]	recovery at 6 h [2, 7]	recovery at 6 h [2, 8]	recovery at 6 h [2, 9]	Basolateral amount as percentage of initial apical amount (Caco-2 transport) [2]	Amount found in the cytosolic compartment of Caco-2 cells, percentage of the initial amount at the apical side (Caco-2 TC7 cells; from alperujo)	Amount found in the cytosolic compartment of Caco-2 cells, percentage of the initial amount at the apical side (Caco-2 TC7 cells; from alperujo-CD)	Metabolism in the intestinal cells (Caco-2 TC7 cells)	Bioavailability in Caco-2 cells as percentage of initial amount in the test meal before in vitro digestion (bioaccessibility × absorption by Caco-2 cells) (Caco-2 cells; from alperujo-CD)	Bioavailability in Caco-2 cells as percentage of initial amount in the test meal before in vitro digestion (bioaccessibility × absorption by Caco-2 cells) (Caco-2 cells; from alperujo)	also measured
hydroxytyrosol-O-glucoside [HT-Glc]	neither HT-Glc nor CA was recovered; also recorded: no HT-Glc was recovered	about 10%	–	–	–	–	–	–	–	–	–	–	–	Bioaccessibility (recovery in the final aqueous phase at the duodenal step) ([1]; in vitro digestion with test meal, average of alperujo and alperujo-CD, mean ± SD): 73.2 ± 4.5%; Recovery in the cytosolic compartment of the cells or in the basolateral media (crossing of Caco-2 monolayers, native form) (Caco-2 TC7 cells; listed as Hydroxytyrosol-O-glucoside): did not cross Caco-2 cell monolayers
O=C(O)/C=C/c1ccc(O)c(O)c1 [CA, caffeic acid]	neither HT-Glc nor CA was recovered; also recorded: not recovered; also recorded: not found bioavailable in its native form	~18%	~64.9%	–	–	–	–	–	–	–	–	–	–	Recovery in the cytosolic compartment of the cells or in the basolateral media (crossing of Caco-2 monolayers, native form) (Caco-2 TC7 cells; listed as caffeic): did not cross Caco-2 cell monolayers
O=C(O)/C=C/c1ccc(O)cc1 [p-Cm, p-coumaric acid]	–	–	> 87.9%	≥ 100%	48.7 ± 2%	40.2 ± 4.1%	~100%	> 40%	1.6 ± 0.1%	1.8 ± 0.2%	no metabolism occurred	37.2 ± 3.2 ^a %	32.0 ± 3.2 ^a %	Higher bioaccessibility of p-Cm than CA ([1]; in vitro digestion, final aqueous phase): 25%; Improvement of local absorption by β-CD (Caco-2 TC7 cells; alperujo-CD vs alperujo, p < 0.05): 8.5 ± 4.2%; Bioavailability in Caco-2 cells as percentage of initial amount in the test meal before in vitro digestion (bioaccessibility × absorption by Caco-2 cells) (Caco-2 cells; from alperujo-CD, listed as p-coumaric acid): 37.2 ± 3.2%; Bioavailability in Caco-2 cells as percentage of initial amount in the test meal before in vitro digestion (bioaccessibility × absorption by Caco-2 cells) (Caco-2 cells; from alperujo, listed as p-coumaric acid): 32.0 ± 3.2%
COc1cc(/C=C/C(=O)O)ccc1O [FA, Ferulic acid]	–	–	–	–	–	–	–	–	–	–	–	–	–	FA at the basolateral side as percentage (CA equivalent) of the initial CA amount in the apical side (Caco-2 TC7 cells; from alperujo-CD): 23.4 ± 2.2% and 23.4 ± 2.2 ^b %; FA at the basolateral side as percentage (CA equivalent) of the initial CA amount in the apical side (Caco-2 TC7 cells; from alperujo): 18.8 ± 1.0% and 18.8 ± 1.0 ^a %; Absorption efficiency of FA through cell monolayers, percentage of the initial CA amount (Caco-2 TC7 cells; alperujo and alperujo-CD): ~ 20%; Bioavailability of FA (CA metabolite) in Caco-2 cells as percentage of initial amount in the test meal before in vitro digestion (Caco-2 cells; from alperujo-CD): 10.0 ± 1.0 ^a %; Bioavailability of FA (CA metabolite) in Caco-2 cells as percentage of initial amount in the test meal before in vitro digestion (Caco-2 cells; from alperujo): 8.9 ± 0.5 ^a %
OCCc1ccc(O)cc1 [Tyr, tyrosol]	–	–	83.7 ± 2.4%	≥ 100%	25.2 ± 1.3%	~22.9%	~100%	> 20%	1.6 ± 0.1%	1.4 ± 0.1%	no metabolism occurred	16.8 ± 0.5 ^a %	16.2 ± 0.6 ^a %	Higher bioaccessibility of Tyr than HT [3]: 16%; Bioavailability in Caco-2 cells as percentage of initial amount in the test meal before in vitro digestion (bioaccessibility × absorption by Caco-2 cells) (Caco-2 cells; from alperujo-CD, listed as tyrosol): 16.8 ± 0.5%; Bioavailability in Caco-2 cells as percentage of initial amount in the test meal before in vitro digestion (bioaccessibility × absorption by Caco-2 cells) (Caco-2 cells; from alperujo, listed as tyrosol): 16.2 ± 0.6%
O=C1C[C@@H](c2ccc(O)cc2)Oc2cc(O)cc(O)c21 [naringenin]	–	–	–	–	–	–	–	–	–	–	–	–	–	Improvement of absorption through the gut epithelium by hydroxypropyl-β-CD [4]: 11 fold
